Experimental data: PMC7956517, “Induction of Apoptosis and Regulation of MicroRNA Expression by (2E,6E)-2,6-bis-(4-hydroxy-3-methoxybenzylidene)-cyclohexanone (BHMC) Treatment on MCF-7 Breast Cancer Cells” (Molecules, 2021)
Values belong to the compound of their own block, whether it stands above or below them.

Experiments:
[1] = system: MDA-MB-231 cells; assay: MTT cell viability assay, MDA-MB-231; assay type: cell-based, human; details: for IC50: Homo sapiens, MDA-MB-231, MTT
Experimental: (§1) The MTT cell viability assay for MCF-7, MDA-MB-231 and MCF 10A cells were conducted according to a previously reported protocol. MCF-7, MDA-MB-231, and MCF-10A were seeded in a 96-well plate at a concentration of 0.8 × 10^5 cells/mL and left overnight in a CO2 incubator set at 37 °C. Then, BHMC with 2-fold dilution ranging between 180 and 3 µM was added to the respective cell lines while the last row of the 96-well plate served as untreated control cells. After 24, 48, and 72 h of incubation, 20 µL of 5 mg/mL MTT solution was added to all wells and the plate was further incubated for three hours. Then, 180 µL of supernatant was carefully discarded and added with 100 µL of DMSO to solubilize the purple crystals. Optical density was measured at 570 nm wavelength using ELISA Reader (Bio-tek Instrument, Winooski, Vermont, USA). The percentage of cell viability was calculated following deduction of the blank cell absorbance using the formula (Equation (1)):(1) Cell viability % =Absorbance of treated cells/Absorbance of untreated control× 100%
(§2) The dose–response curve was plotted, and the concentration that yields 50% inhibition of cell growth (IC50) was obtained as a parameter for cytotoxicity. Starting from this point, BHMC with IC50 value was used throughout the study to induce cell death. On the other hand, selectivity index (SI) was obtained by using the following formula (Equation (2)):(2) Selectivity index SI =IC50 of MCF−10A/IC50 of MCF−7 or MDA−MB−231

[2] = system: MCF-7 cells; assay: Flow cytometry Annexin V apoptosis detection; assay type: cell-based, human; details: MCF-7, Annexin V/7ADD
Experimental: (§3) MCF-7 cells were seeded at 0.8 × 10^5 cells/mL in a 6-well plate and left overnight in a CO2 incubator set at 37 °C. […] Untreated control was prepared simultaneously. After 24, 48, or 72 h of incubation, the cell was harvested using TrypLE (Gibco Thermo Fisher Scientific, Waltham, MA, USA), washed with phosphate buffer saline (PBS), and subjected to the following assays. All assays were tested with three biological replicates.
Cell apoptosis assay was conducted based on a study method with some changes. […] In brief, harvested cells were washed and re-suspended in 100 µL of PBS. […] Approximately, 10,000 cells in the population were captured. The experiment was qualitatively repeated for three times.

[3] = system: MCF-7 cells; assay: Real-time quantitative PCR of mRNA expression (SNAIL, VEGF); assay type: cell-based, human; details: qPCR, BHMC-treated vs untreated MCF-7
Experimental: (§4) Total RNAs including small RNAs were isolated from MCF-7 treated with BHMC using miRNeasy kit (Qiagen, Hilden, Germany) according to manufacturer’s instructions. The quality of extracted RNA was assessed by the NanoDrop-1000 Spectrophotometer (NanoDrop Technologies Inc., Wilmington, DE, USA) and Agilent 2100 Bioanalyzer, and samples with A260/A280 ratio between 1.8 to 2.1 and an RIN value of 8 and above was used for further analysis.
Real-time quantitative PCR was performed on SNAIL and VEGF, which were the target of miR-30a and miR-3195 [31]. One microgram (μg) of total RNA was reverse transcripted using the QuantiTect Reverse Transcription Kit (Qiagen, USA) according to the manufacturer protocol. Primers were designed using Primer-Blast (Table 2) and synthesized commercially. NEXpro qPCR Evagreen Master Mix (NEX Diagnostics, Gyeonggi-do, Korea) was used to perform the mRNA qPCR based on the manufacturer protocol. The qPCR system CFX96 (BioRad, USA) was used and the qPCR conditions were: 50 °C for 2 min, 95 °C for 10 min, and 40 cycles of 95 °C for 15 s, and 60 °C for 1 min. A final melting curve was performed to ensure that only one amplicon was present. The relative amounts of mRNAs were normalized against reference gene beta-actin (ACTB) as described previously and the fold change for each mRNA was calculated by the 2^−ΔΔCt method.

[4] = system: MCF-7 cells; assay: miRNA microarray analysis; assay type: cell-based, human
Experimental: as §4
Total RNA (8 µL) of control and BHMC-treated MCF-7 cells was directly labelled using Flash Tag Biotin HSR Labeling kits (Affymetrix, Santa Clara, CA, USA) in accordance with the instructions of the manufacturer. RNA was heated to 80 °C for 10 min before labeling to inactivate any residual DNase activity. RNA was hybridized for 42 h to the GeneChip miRNA 2.0 array (Affymetrix, Santa Clara, CA, USA). The GeneChip miRNA 2.0 arrays contain 100% miRBase version 15 coverage of 131 organisms and contain probes for 3439 humans non-coding RNAs (ncRNAs), including 1105 miRNAs and 2334 other ncRNAs (including scaRNAs and snoRNAs). Washing and staining were automatically performed using the Affymetrix Fluidics Station 450 (Affymetrix, Santa Clara, CA, USA), and probe intensities were measured using the GeneChip® Scanner (Affymetrix, Santa Clara, CA, USA).
Data discussed in this publication have been deposited in the NCBI Gene Expression Omnibus and are accessible through the GEO Series accession number GSE155467. Using the gene expression workflow in Partek Genomics Suite software (Cat 4462922G, Partek Inc., St. Louis, MO, USA), the CEL files generated by the Affymetrix data file were converted into .nFMT files. […] Differentially expressed miRNAs (>5-fold change, p < 0.05) were identified using analysis of variance (ANOVA) analysis.

[5] = system: MCF-10A cells; assay: MTT cell viability assay, MCF-10A; assay type: cell-based; details: Homo sapiens
Experimental: as §1, §2

[6] = system: MCF-7 cells; assay: Light and fluorescent (AO/PI) microscopic observation; assay type: cell-based, human; details: MCF-7, 8.2 µM of BHMC, 48 h
Experimental: as §3
Morphology of control and BHMC-treated MCF-7 cells was observed under light microscope (Nikon, Minato City, Japan). For fluorescent microscope observation, control and BHMC-treated MCF-7 cells (2 × 10^5 cells) were stained with 10 μL of 100 μg/mL acridine orange (AO) and 100 μg/mL propidium iodide (PI) for 10 min. After that, the cells were washed and examined under fluorescent microscope (Nikon FC-35DX, Minato City, Japan) using an excitation filter and barrier filter at 450–490 nm and long pass filter of 520 nm.

[7] = system: MCF-7 cells; assay: Flow cytometry cell cycle analysis; assay type: cell-based, human; details: MCF-7, BHMC at IC50 (8.2 µM in figure; 12.50 µM in methods)
Experimental: as §3
Cell cycle progression of control and BHMC-treated MCF-7 cells was evaluated by staining with BD Cycletest Plus kit (Becton Dickinson, Franklin Lakes, NJ, USA) and subjected to BD FACS Calibur flow cytometer (Becton Dickinson, USA) analysis. In brief, harvested cells were incubated with 250 µL of trypsin buffer for 10 min followed by addition of 200 µL of trypsin inhibitor containing RNase buffer. After 10 min of incubation, the samples were finally stained with 200 µL of PI solution. Flow cytometer analysis was carried out after 10 min of incubation with the PI stain solution. A minimum of 10,000 cells in the population was captured. Three independent experiments were repeated with similar parameter.

[8] = system: MCF-7 cells; assay: MTT cell viability assay, MCF-7; assay type: cell-based, human; details: for IC50: Homo sapiens, MCF7, MCF-7, MTT
Experimental: as §1, §2

[9] = system: MCF-7 cells; assay: Real-time quantitative PCR of miRNAs expression; assay type: cell-based, human; details: qPCR, BHMC-treated vs untreated MCF-7
Experimental: as §4
One microgram (μg) of total RNA was used in reverse transcription and the process was conducted using the miScript II RT Kit (Qiagen/SABiosciences, Hilden, Germany) according to the manufacturer protocol. Quantitative RT-PCR was carried out using CFX96 (BioRad, Hercules, CA, USA). […] The miRNA-specific primers for miR-3195, miR-30a, miR-6813-5p, and miR-6132 were designed by miRprimer and commercially synthesized as listed in Table 3. The expression of putative miRNAs was evaluated using geNorm algorithms. PCR reactions were performed in triplicate for each sample. The relative amounts of miRNAs were normalized against reference miRNAs and the fold change for each miRNA was calculated by the 2^−ΔΔCt method.

[10] = IC50 of MCF-10A / IC50 of MDA-MB-231, 24 h
[11] = IC50 of MCF-10A / IC50 of MDA-MB-231, 48 h
[12] = IC50 of MCF-10A / IC50 of MDA-MB-231, 72 h
[13] = IC50 of MCF-10A / IC50 of MCF-7, 24 h
[14] = IC50 of MCF-10A / IC50 of MCF-7, 48 h
[15] = IC50 of MCF-10A / IC50 of MCF-7, 72 h

IC50 ([1]; 24 h): 29.4 ± 3.15 µM | IC50 ([1]; 48 h): 20.1 ± 1.94 µM | IC50 ([1]; 72 h): 19.7 ± 3.14 µM | IC50 ([8]; 24 h): 23.5 ± 2.41 µM | IC50 ([8]; 48 h): 12.5 ± 1.87 µM | IC50 ([8]; 72 h): 11 ± 1.33 µM
SMILES: COc1cc(/C=C2\CCC/C(=C\c3ccc(O)c(OC)c3)C2=O)ccc1O [BHMC, (2E,6E)-2,6-bis-(4-hydroxy-3-methoxybenzylidene)-cyclohexanone]
SI MCF10A/MDA-MB-231 [1, 10]: 6.14 | SI MCF10A/MDA-MB-231 [1, 11]: 5.38 | SI MCF10A/MDA-MB-231 [1, 12]: 5.00 | selectivity index (SI) MDA-MB-231 against MCF-10A ([1]; summary over 24, 48 and 72 h): > 5 | Early apoptotic cells ([2]; BHMC at IC50, 24 h): 10.34% | Late apoptotic/necrotic cells ([2]; BHMC at IC50, 24 h): 8.81% | Early apoptotic cells ([2]; BHMC at IC50, 72 h): 43.44% | Late apoptotic/necrotic cells ([2]; BHMC at IC50, 72 h): 38.22% | SNAIL mRNA expression [3]: downregulated | VEGF mRNA expression [3]: downregulated | downregulation of miR-6813-5p, miR-6132, miR-4725-3p, miR-1587, miR-6779-5p ([4]; BHMC-treated MCF-7): at least 30 folds | upregulation of top five overexpressed miRNAs (miR-184, miR-3195, miR-149-5p, miR-30a-3p, miR532-3p) ([4]; BHMC-treated MCF-7): at least 10 folds | hsa-miR-30a-3p Upregulated Fold Change ([4]; BHMC-treated vs control MCF-7): 12.9 | hsa-miR-149-5p Upregulated Fold Change ([4]; BHMC-treated vs control MCF-7): 13.06 | hsa-miR-184 Upregulated Fold Change ([4]; BHMC-treated vs control MCF-7): 17.58 | hsa-miR-532-3p Upregulated Fold Change ([4]; BHMC-treated vs control MCF-7): 11.73 | hsa-miR-1587 Downregulated Fold Change ([4]; BHMC-treated vs control MCF-7): −35.89 | hsa-miR-3195 Upregulated Fold Change ([4]; BHMC-treated vs control MCF-7): 16.21 | hsa-miR-4725-3p Downregulated Fold Change ([4]; BHMC-treated vs control MCF-7): −41.51 | hsa-miR-6132 Downregulated Fold Change ([4]; BHMC-treated vs control MCF-7): −61.96 | hsa-miR-6779-5p Downregulated Fold Change ([4]; BHMC-treated vs control MCF-7): −33.07 | hsa-miR-6813-5p Downregulated Fold Change ([4]; BHMC-treated vs control MCF-7): −71.82 | IC50 ([5]; 24 h): 180 ± 3.11 µM | IC50 ([5]; 48 h): 108 ± 2.15 µM | IC50 ([5]; 72 h): 98.4 ± 3.22 µM | morphological changes, light microscope [6]: reduced the MCF-7 cells number and severely distorted the MCF-7 cells shape | morphology, acridine orange and propidium iodide fluorescent microscopy [6]: presented the morphological characteristics of apoptotic cells | percentage of cells at G2/M phase ([7]; 24 h): 24.26% | percentage of cells at Sub G0/G1 phase ([7]; 24 h): 6.64% | percentage of cells at Sub G0/G1 phase ([7]; 72 h): 22.80% | SI MCF10A/MCF7 [8, 13]: 7.66 | SI MCF10A/MCF7 [8, 14]: 8.64 | SI MCF10A/MCF7 [8, 15]: 8.96 | selectivity index (SI) MCF-7 against MCF-10A ([8]; summary over 24, 48 and 72 h): > 7 | miR-30a-3p expression increment [9]: at least 5 fold | miR-3195 expression increment [9]: at least 5 fold | miR-6132 downregulation [9]: at least 10 folds | miR-6813-5p downregulation [9]: at least 10 folds

IC50 ([1]; 24 h): 32 ± 2.81 µM | IC50 ([1]; 48 h): 26 ± 2.33 µM | IC50 ([1]; 72 h): 23 ± 2.15 µM | IC50 ([8]; 24 h): 55.7 ± 2.77 µM | IC50 ([8]; 48 h): 45.1 ± 2.12 µM | IC50 ([8]; 72 h): 39.8 ± 1.51 µM
SMILES: COc1cc(/C=C/C(=O)CC(=O)/C=C/c2ccc(O)c(OC)c2)ccc1O [Curcumin, reference compound]
SI MCF10A/MDA-MB-231 [1, 10]: 5.88 | SI MCF10A/MDA-MB-231 [1, 11]: 4.31 | SI MCF10A/MDA-MB-231 [1, 12]: 4.35 | IC50 ([5]; 24 h): 188 ± 4.52 µM | IC50 ([5]; 48 h): 112 ± 4.57 µM | IC50 ([5]; 72 h): 100 ± 4.31 µM | SI MCF10A/MCF7 [8, 13]: 3.37 | SI MCF10A/MCF7 [8, 14]: 2.48 | SI MCF10A/MCF7 [8, 15]: 2.51
